# Reference: US20120316200A1, “PYRIDONE DERIVATIVES” (Merck Sharp & Dohme Corp., priority 2010, published 2012)
# Molecular target: T1, human MCH-1R (Homo sapiens, UniProt Q99705)
# T1 construct: expressed in transfected cells; host or cells: CHO-K1 (American Type Culture Collection)
# Experiment: MCH-1R binding inhibition ([125I]MCH binding to membranes of MCH-1R expression CHO-K1 cells)
# Conditions: 50 pM [125I]MCH, membranes of CHO-K1 cells expressing human MCH-1R, 25° C., one hour, pH 7.4; read-out: IC50 (50% inhibition concentration for specific [125I]MCH binding)
# Procedure: A cDNA sequence encoding human MCH-1R [FEBS Letters, Vol. 398, 253 (1996); Biochimica et Biophisica Acta, Vol. 1401, 216 (1998)] was cloned to a plasmid vector pEF/myc/cyto (manufactured by Invitrogen). The obtained expression vector was transfected to a host cell CHO-K1 (American Type Culture Collection) using Lipofectamine Plus reagent (manufactured by Life Technology) to provide MCH-1R expression cells.
# Membrane samples prepared from the MCH-1R expression cells were incubated with a test compound and 50 pM [^125I]MCH (manufactured by NEN) in an assay buffer (50 mM Tris buffer containing 10 mM magnesium chloride, 2 mM ethylenediamine tetraacetate, 0.01% bacitracin, and 0.2% bovine serum albumin; pH 7.4) at 25° C. for one hour, followed by filtration through a glass filter GF/C (manufactured by Wattman). The glass filter was washed with 50 mM Tris buffer (pH 7.4) containing 10 mM magnesium chloride, 2 mM ethylenediamine tetraacetate, and 0.04% Tween-20, and then the radioactivity on the glass filter was determined. Non-specific binding was measured in the presence of 1 μM human MCH, and, with respect to each test compound, 50% inhibition concentration (IC50 value) for specific [^125I]MCH binding was determined.
# T1 sequence (Q99705 whole entry): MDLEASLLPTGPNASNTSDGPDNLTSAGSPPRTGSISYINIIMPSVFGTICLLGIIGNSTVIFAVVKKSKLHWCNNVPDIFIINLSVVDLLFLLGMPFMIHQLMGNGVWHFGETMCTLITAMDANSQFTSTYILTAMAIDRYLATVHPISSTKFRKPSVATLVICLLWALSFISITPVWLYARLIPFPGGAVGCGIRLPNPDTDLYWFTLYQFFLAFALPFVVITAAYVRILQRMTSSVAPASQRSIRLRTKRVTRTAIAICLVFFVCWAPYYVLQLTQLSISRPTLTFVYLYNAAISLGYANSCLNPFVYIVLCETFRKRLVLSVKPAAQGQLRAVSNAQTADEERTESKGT
row,SMILES,IC50 [nM]
1,"Cc1cc(-n2ccc(OCc3ccc(F)cc3)cc2=O)ccc1OCC(C)(C)O [Example 2, 4-[(4-Fluorobenzyloxy)]-1-[4-(2-hydroxy-2-methylpropoxy)-3-methylphenyl]pyridin-2(1H)-one]",11
2,"COc1cc(-n2ccc(OCc3ccc(F)cc3)cc2=O)ccc1OCCC(C)(C)O [Example 8, 4-(4-Fluorobenzyloxy)-1-[4-(3-hydroxy-3-methylbutoxy)-3-methoxyphenyl]pyridin-2-(1H)-one]",84
3,"CC(C)(O)CCOc1ccc(-n2ccc(OCc3ccc(F)cc3)cc2=O)cc1 [Example 9, 4-[(4-Fluorobenzyl)oxy]-1-[4-(3-hydroxy-3-methylbutoxy)phenyl]pyridin-2 (1H)-one]",23
4,"CC(C)(O)COc1ccc(-n2ccc(OCc3ccc(F)cc3)cc2=O)cc1F [Example 12, 4-[(4-fluorobenzyl)oxy]-1-[3-fluoro-4-(2-hydroxy-2-methylpropoxy)phenyl]pyridin-2(1H)-one]",97
5,"Cc1cc(-n2ccc(OCc3ccc(F)cc3)cc2=O)ccc1OCC(=O)OC(C)C [Example 18, propan-2-yl (4-{4-[(4-fluorobenzyl)oxy]-2-oxopyridin-1(2H)-yl}-2-methylphenoxy)acetate]",23
6,"COC(=O)COc1ccc(-n2ccc(OCc3ccc(F)cc3)cc2=O)cc1C [Example 19, methyl (4-{4-[(4-fluorobenzyl)oxy]-2-oxopyridin-1(2H)-yl}-2-methylphenoxy)acetate]",31
7,"COc1cc(-n2ccc(OCc3ccc(Cl)cn3)cc2=O)ccc1OC[C@H](O)C1CC1 [Example 21, 4-[(5-chloropyridin-2-yl)methoxy]-1-{4-[(2R)-2-cyclopropyl-2-hydroxyethoxy]-3-methoxyphenyl}pyridin-2(1H)-one]",33
8,O=c1cc(OCc2ccc(Cl)cn2)ccn1-c1ccc(OC[C@H](O)C2CC2)cc1 [Example 22],101
9,"O=c1cc(OCc2ccc(Cl)cn2)ccn1-c1ccc(OC[C@@H](O)C2CC2)cc1 [Example 26, 4-[(5-chloropyridin-2-yl)methoxy]-1-{4-[(2S)-2-cyclopropyl-2-hydroxyethoxy]phenyl}pyridin-2(1H)-one]",91

# Continued by falling IC50, values first:
row,IC50 [nM],SMILES
1,63,"CC(C)(CO)COc1ccc(-n2ccc(OCc3ccc(F)cc3)cc2=O)cc1 [Example 6, 4-[(4-Fluorobenzyl)oxy]-1-[4-(3-hydroxy-2,2-dimethylpropoxy)phenyl]pyridin-2(1H)-one]"
2,61,"COC(=O)COc1ccc(-n2ccc(OCc3ccc(F)cc3)cc2=O)cc1OC [Example 20, methyl (4-{4-[(4-fluorobenzyl)oxy]-2-oxopyridin-1(2H)-yl}-2-methoxyphenoxy)acetate]"
3,38,"CC(C)(O)c1ccc2cc(-n3ccc(OCc4ccc(F)cc4)cc3=O)ccc2n1 [Example 7, 4-(4-Fluorobenzyloxy)-1-[2-(2-hydroxypropan-2-yl)quinolin-6-yl]pyridin-2-(1H)-one]"
4,36,"COc1cc(-n2ccc(OCc3ccc(Cl)cn3)cc2=O)ccc1OC[C@@H](O)C1CC1 [Example 24, 4-[(5-chloropyridin-2-yl)methoxy]-1-{4-[(2S)-2-cyclopropyl-2-hydroxyethoxy]-3-methoxyphenyl}pyridin-2(1H)-one]"
5,11,"Cc1cc(-n2ccc(OCc3ccc(F)cc3)cc2=O)ccc1OCC1(O)CC1 [Example 5, 4-[(4-Fluorobenzyl)oxy]-1-{4-[(1-hydroxycyclopropyl)methoxy]-3-methylphenyl}pyridin-2(1H)-one]"
6,11,"CC(C)(O)COc1ccc(-n2ccc(OCc3ccc(F)cc3)cc2=O)cc1Cl [Example 10, 1-[3-chloro-4-(2-hydroxy-2-methylpropoxy)phenyl]-4-[(4-fluorobenzyl)oxy]pyridin-2(1H)-one]"
